Measurements as given in patent US8859588B2, “Substituted N-heteroaryl bipyrrolidine carboxamides, preparation and therapeutic use thereof” (SANOFI, priority 2010, dated 2014).

The compounds below were run against T1, rhesus (Macacca Mulatta) H3 receptor (Macaca mulatta, UniProt Q865E1) (assay: Rhesus H3 radioligand binding assay ([3H]-Methylhistamine displacement, WGA SPA)). Conditions: [3H]-Methylhistamine 2 nM; rhesus H3 membranes from Flp-In T-REx 293 cells; 25° C., 1 hour; Ki by Cheng-Prusoff equation.
T1 construct: rhesus monkey (Macacca Mulatta) 445 amino acid H3 receptor; (Genbank #AY231164); expressed in transfected cells; host or cells: Flp-In T-REx 293 Cell Line (Invitrogen), pcDNA5/FRT/TO vector, induced with tetracycline; membrane preparation
T1 sequence (Q865E1 1-445): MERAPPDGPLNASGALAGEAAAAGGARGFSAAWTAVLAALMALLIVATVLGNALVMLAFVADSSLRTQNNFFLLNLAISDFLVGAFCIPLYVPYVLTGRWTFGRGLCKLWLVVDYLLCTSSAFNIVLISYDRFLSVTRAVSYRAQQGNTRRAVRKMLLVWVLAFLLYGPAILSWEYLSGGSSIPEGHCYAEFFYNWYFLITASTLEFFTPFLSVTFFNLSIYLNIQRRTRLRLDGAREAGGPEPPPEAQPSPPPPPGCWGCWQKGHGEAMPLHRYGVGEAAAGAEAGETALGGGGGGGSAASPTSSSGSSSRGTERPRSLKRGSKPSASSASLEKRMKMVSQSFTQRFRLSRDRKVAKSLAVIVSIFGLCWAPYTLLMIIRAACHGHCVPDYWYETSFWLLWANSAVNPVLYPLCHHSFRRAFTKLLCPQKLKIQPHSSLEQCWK
Set-up: species or system rhesus monkey (Macacca Mulatta)
Procedure: Rhesus H3 membranes were prepared from the Flp-In T-REx 293 Cell Line (Invitrogen) stably transfected with pcDNA5/FRT/TO (Invitrogen) containing the rhesus monkey (Macacca Mulatta) 445 amino acid H3 receptor. (Genbank #AY231164). Stably transfected cultures were amplified in tissue culture flasks by standard tissue culture methods and induced to express rhesus H3 by exposure to 500 ng/ml tetracycline (Cellgro) for 24 hours. After induction, cells were dissociated from flasks utilizing Cell Stripper (Cellgro). Cells were centrifuged (1K×g, 5 min) and pellet frozen in an ethanol-dry ice bath to disrupt cell membranes. Frozen cell pellet was re-suspended in 5 mM HEPES (pH 7.4, Invitrogen) at 10 ml/1000 cm2 of harvested cells. The cell suspension was drawn through an 18 gauge needle (2-3×) followed by a 23 gauge needle (2-3×) to further disrupt cell membranes. The cell suspension was centrifuged (40K×g, 30 min). Cell membrane pellet was re-suspended in 5 mM HEPES (pH 7.4, Invitrogen) at a final protein concentration of 10 mg/ml. Rhesus H3 membranes were stored under liquid nitrogen prior to use in [3H]-Methylhistamine and GTPγS radioligand binding assays.
Rhesus H3 radioligand binding assay was performed using rhesus H3 receptor membranes (prepared as described above), [3H]-Methylhistamine (Perkin Elmer) and WGA SPA beads (wheat germ agglutinin scintillation proximity assay) beads (Amersham). The assay was performed in 96-well Opti-Plates (Packard). Each reaction contained 50 μl rhesus H3 membranes (20-30 μg total protein), 50 μl WGA SPA beads (0.1 μg) and 50 μl of 83 Ci/mmol [^3H]-Methylhistamine (final concentration 2 nM) and 50 μl of tested compound. The compounds of this invention and/or vehicle were diluted with binding buffer from 10 mM DMSO stocks. Assay plates were sealed with TopSeal (Perkin Elmer) and mixed on shaker (25° C., 1 hour). Assay plates were read on TopCount scintillation counter (Packard). Results were analyzed by Hill transformation and Ki values were determined by Cheng-Prusoff equation.

Row | Structure (SMILES) | Ki [nM]
1 | Cc1ccc(F)cc1C(=O)Nc1ccc(N2CC[C@@H](N3CCC[C@@H]3C)C2)nc1C [Example 9, 5-Fluoro-2-methyl-N-[2-methyl-6-((2S,3′R)-2-methyl-[1,3′]bipyrrolidinyl-1′-yl)-pyridin-3-yl]-benzamide] | 195
2 | Cc1nc(N2CC[C@@H](N3CCC[C@@H]3C)C2)ccc1NS(=O)(=O)c1ccc(F)cc1 [Example 12, 4-Fluoro-N-[2-methyl-6-((2S,3′R)-2-methyl-[1,3′]bipyrrolidinyl-1′-yl)-pyridin-3-yl]-benzenesulfonamide] | 29.6
3 | Cc1nc(N2CC[C@@H](N3CCC[C@@H]3C)C2)ccc1NC(=O)c1c(C)noc1C [Example 11, 3,5-Dimethyl-isoxazole-4-carboxylic acid [2-methyl-6-((2S,3′R)-2-methyl-[1,3′]bipyrrolidinyl-1′-yl)-pyridin-3-yl]-amide] | 84
4 | Cc1nc(N2CC[C@@H](N3CCC[C@@H]3C)C2)ccc1NS(=O)(=O)C1CC1 [Example 13, Cyclopropanesulfonic acid [2-methyl-6-((2S,3′R)-2-methyl-[1,3′]bipyrrolidinyl-1′-yl)-pyridin-3-yl]-amide] | 37.1
5 | Cc1nc(N2CC[C@@H](N3CCC[C@@H]3C)C2)ccc1NC(=O)c1cccs1 [Example 10, Thiophene-2-carboxylic acid [2-methyl-6-((2S,3′R)-2-methyl-[1,3′]bipyrrolidinyl-1′-yl)-pyridin-3-yl]-amide] | 36

Now those with a lower Ki, led by results:

Row | Ki [nM] | Structure (SMILES)
6 | 27 | C[C@H]1CCCN1[C@H]1CCN(c2ccc(NC(=O)C3CCOCC3)nc2)C1 [Example 2, Tetrahydro-pyran-4-carboxylic acid [5-((2S,3′S)-2-methyl-[1,3′]bipyrrolidinyl-1′-yl)-pyridin-2-yl]-amide]
7 | 26.3 | Cc1nc(N2CC[C@H](N3CCC[C@@H]3C)C2)ccc1NS(=O)(=O)C1CCCCC1 [Example 5, Cyclohexanesulfonic acid [2-methyl-6-((2S,3′S)-2-methyl-[1,3′]bipyrrolidinyl-1′-yl)-pyridin-3-yl]-amide]
8 | 8.09 | Cc1nc(N2CC[C@H](N3CCC[C@@H]3C)C2)ccc1NC(=O)c1ccccc1 [Example 7, N-[2-Methyl-6-((2S,3′S)-2-methyl-[1,3′]bipyrrolidinyl-1′-yl)-pyridin-3-yl]-benzamide]
9 | 4.9 | Cc1nc(N2CC[C@H](N3CCC[C@@H]3C)C2)ccc1NC(=O)Cc1ccccc1 [Example 4, N-[2-Methyl-6-((2S,3′S)-2-methyl-[1,3′]bipyrrolidinyl-1′-yl)-pyridin-3-yl]-2-phenyl-acetamide]
10 | 4.24 | Cc1nc(N2CC[C@H](N3CCC[C@@H]3C)C2)ccc1NC(=O)c1cccc2ccccc12 [Example 3, Naphthalene-1-carboxylic acid [2-methyl-6-((2S,3′S)-2-methyl-[1,3′]bipyrrolidinyl-1′-yl)-pyridin-3-yl]-amide]
11 | 2.51 | Cc1nc(N2CC[C@H](N3CCC[C@@H]3C)C2)ccc1NS(=O)(=O)c1ccc(F)c(F)c1 [Example 6, 3,4-Difluoro-N-[2-methyl-6-((2S,3′S)-2-methyl-[1,3′]bipyrrolidinyl-1′-yl)-pyridin-3-yl]-benzenesulfonamide]
12 | 2.46 | CC(=O)N1CCC(C(=O)Nc2ccc(N3CC[C@@H](N4CCC[C@@H]4C)C3)nc2C)CC1 [Example 8, 1-Acetyl-piperidine-4-carboxylic acid [2-methyl-6-((2S,3R)-2-methyl-[1,3′]bipyrrolidinyl-1′-yl)-pyridin-3-yl]-amide]
13 | 2.4 | Cc1nc(N2CC[C@H](N3CCC[C@@H]3C)C2)ccc1NC(=O)C1CCOCC1 [Example 1, Tetrahydro-pyran-4-carboxylic acid [2-methyl-6-((2S,3′S)-2-methyl-[1,3′]bipyrrolidinyl-1′-yl)-pyridin-3-yl]-amide]
